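Where inhibition never reached the appropriate level, the endpoint shown equals the highest concentration tested. Otherwise, values were interpolated linearly from a five-concentration, 48-hour dose response in 96-well plates. GI50 is the concentration that inhibits growth by half.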 The source made the active and inactive calls. No stated cut-off is given here; in the data, active = GI50 up to about 1.1 µM and inactive = higher.
Experiments:
Assay in all cases: DTP human tumour cell line panel, 48 h
A549 = test system: A549
BT-549 = test system: BT-549
HCC 2998 = test system: HCC 2998
HCT-116 = test system: HCT-116
HOP-62 = test system: HOP-62
M14 = test system: M14
MDA-MB-231 = test system: MDA-MB-231
NCI-H522 = test system: NCI-H522
NCI/ADR-RES = test system: NCI/ADR-RES
OVCAR-4 = test system: OVCAR-4
RXF 393 = test system: RXF 393
SF-268 = test system: SF-268
SK-MEL-2 = test system: SK-MEL-2
SK-MEL-5 = test system: SK-MEL-5
SNB-19 = test system: SNB-19
SR = test system: SR
SW-620 = test system: SW-620
UACC-257 = test system: UACC-257
KM12 = test system: KM12
MOLT-4 = test system: MOLT-4

SMILES	GI50 (A549)	GI50 (BT-549)	GI50 (HCC 2998)	GI50 (HCT-116)	GI50 (HOP-62)	GI50 (M14)	GI50 (MDA-MB-231)	GI50 (NCI-H522)	GI50 (NCI/ADR-RES)	GI50 (OVCAR-4)	GI50 (RXF 393)	GI50 (SF-268)	GI50 (SK-MEL-2)	GI50 (SK-MEL-5)	GI50 (SNB-19)	GI50 (SR)	GI50 (SW-620)	GI50 (UACC-257)	GI50 (KM12)	GI50 (MOLT-4)
CCc1c(O)nc(Nc2nc3ccccc3[nH]2)[nH]c1=O	> 100 µM (inactive)	> 100 µM (inactive)	> 100 µM (inactive)	> 100 µM (inactive)	> 100 µM (inactive)	> 100 µM (inactive)	> 100 µM (inactive)	> 100 µM (inactive)	> 100 µM (inactive)	> 100 µM (inactive)	> 100 µM (inactive)	> 100 µM (inactive)	> 100 µM (inactive)	> 100 µM (inactive)	> 100 µM (inactive)	92.9 µM (inactive)	> 100 µM (inactive)	> 100 µM (inactive)	–	–
C=C1c2nc3ccccc3n2C=C(c2ccc(Cl)cc2)N1c1ccc(OCCN2CCOCC2)cc1	27.4 µM (inactive)	39.3 µM (inactive)	37.9 µM (inactive)	26.2 µM (inactive)	52.6 µM (inactive)	15.7 µM (inactive)	62.4 µM (inactive)	–	12.3 µM (inactive)	12.1 µM (inactive)	32.7 µM (inactive)	34.7 µM (inactive)	6.73 µM (inactive)	13.4 µM (inactive)	> 100 µM (inactive)	12 µM (inactive)	22 µM (inactive)	22.7 µM (inactive)	11.4 µM (inactive)	–
Cc1cc(O)c2c3c(ccc2c1)C(=O)c1c(O)cccc1C3=O [TETRANGULOL]	5.14 µM (inactive)	55.5 µM (inactive)	5.15 µM (inactive)	11.2 µM (inactive)	16.3 µM (inactive)	0.675 µM (active)	17.5 µM (inactive)	0.957 µM (active)	5.97 µM (inactive)	4.57 µM (inactive)	> 100 µM (inactive)	5.66 µM (inactive)	10.3 µM (inactive)	0.33 µM (active)	19.9 µM (inactive)	1.36 µM (inactive)	–	2.28 µM (inactive)	3.88 µM (inactive)	5.48 µM (inactive)
C#C[C@]1(O)[C@@H](CO)O[C@@H](n2ccc(N)nc2=O)[C@@H]1O	< 0.01 µM (active)	0.0834 µM (active)	< 0.0135 µM (active)	< 0.0435 µM (active)	–	0.107 µM (active)	0.0908 µM (active)	< 0.01 µM (active)	< 0.0317 µM (active)	0.18 µM (active)	0.0581 µM (active)	0.019 µM (active)	0.0435 µM (active)	0.0139 µM (active)	0.0706 µM (active)	< 0.01 µM (active)	< 0.01 µM (active)	0.111 µM (active)	< 0.0127 µM (active)	0.0101 µM (active)
CN1C(=O)C2(c3ccccc31)C1CC3C(CO1)C1C2C3(CO)CN1C#N (stereo not drawn)	> 100 µM (inactive)	> 100 µM (inactive)	> 100 µM (inactive)	> 100 µM (inactive)	> 100 µM (inactive)	> 100 µM (inactive)	> 100 µM (inactive)	> 100 µM (inactive)	> 100 µM (inactive)	> 100 µM (inactive)	> 100 µM (inactive)	> 100 µM (inactive)	> 100 µM (inactive)	> 100 µM (inactive)	> 100 µM (inactive)	> 100 µM (inactive)	–	> 100 µM (inactive)	> 100 µM (inactive)	> 100 µM (inactive)
COc1nc(C#CC2CCCCC2)nc(OC)n1	3.95 µM (inactive)	3.37 µM (inactive)	–	0.401 µM (active)	3.72 µM (inactive)	2.38 µM (inactive)	2.3 µM (inactive)	1.59 µM (inactive)	1.64 µM (inactive)	5.42 µM (inactive)	4.91 µM (inactive)	4.07 µM (inactive)	3.81 µM (inactive)	3.06 µM (inactive)	16.6 µM (inactive)	2.3 µM (inactive)	3.3 µM (inactive)	11 µM (inactive)	4.76 µM (inactive)	2.98 µM (inactive)
CC1CCC(C(=O)O)(C(Br)C(=O)O)CC1 (stereo not drawn)	> 100 µM (inactive)	> 100 µM (inactive)	–	> 100 µM (inactive)	> 100 µM (inactive)	> 100 µM (inactive)	> 100 µM (inactive)	–	> 100 µM (inactive)	> 100 µM (inactive)	> 100 µM (inactive)	–	> 100 µM (inactive)	> 100 µM (inactive)	> 100 µM (inactive)	> 100 µM (inactive)	> 100 µM (inactive)	> 100 µM (inactive)	> 100 µM (inactive)	> 100 µM (inactive)
O=C1C(Cl)=C(Oc2ccc([N+](=O)[O-])cc2)C(=O)c2c(O)ccc(O)c21	> 100 µM (inactive)	49.3 µM (inactive)	> 100 µM (inactive)	49.3 µM (inactive)	> 100 µM (inactive)	> 47.8 µM (inactive)	28.4 µM (inactive)	19.2 µM (inactive)	> 100 µM (inactive)	51.8 µM (inactive)	23.1 µM (inactive)	> 61.8 µM (inactive)	–	> 84.1 µM (inactive)	> 100 µM (inactive)	3.78 µM (inactive)	30.2 µM (inactive)	> 100 µM (inactive)	> 100 µM (inactive)	5.85 µM (inactive)
